How the values were obtained:
MERTK = test: Flow cytometry confirmation of MERTK expression on M2C macrophages; assay type: cell-based, mouse; details: baicalin-treated vs placebo-treated macrophages
Procedure: The bone marrow was flushed out from the femurs of mice (C57BL/6J, 8-week-old to 20-week-old, from National Laboratory Animal Center in Taipei, Taiwan) with phosphate-buffered saline (PBS) containing BSA 0.5%. The peripheral blood or bone marrow flushing fluid were layered with Ficoll-Hypaque (GE Healthcare, Uppsala, Sweden) and centrifuged at 400×g for 40 minutes at 18° C. to isolate the mononuclear cell of peripheral blood and bone marrow. The interphase layer containing mononuclear cell was washed with PBS and centrifuged for 10 minutes at 100×g, 18° C. twice. Plate mononuclear cells in dish culture with RPM 1640 supplemented with 10% FBS (fetal bovine serum) and 50 ng/ml recombinant mouse M-CSF (PeproTech, British) at 37° C. and 5% CO2 for 7 days to induce the mononuclear cells to differentiate into macrophage. On the next day of the 7th day of M-CSF treatment, 5×10^5 cells of bone marrow derived macrophages (BMDM) cells were plated in RPMI 1640 (10% FBS) and incubated overnight. […]
1×10^6 cells of the M2C macrophages induced by baicalin were analyzed by flow cytometry to confirm whether the M2C macrophages express MERTK. Fluorescence-labelled anti-mouse antibodies (Biolegend, the U.S.A.), FITC-anti-CD 11b and PE-anti-MERTK, are used in the analysis. […] After removing supernatant, the sample was dissolved in 1 ml of PBS and analyzed by flow cytometry.

[1] = test system: bone marrow derived macrophages (BMDM); test: Induction of M2C macrophage polarization by baicalin (morphology, microscope images); assay type: cell-based, mice (C57BL/6J); details: 50 μM Baicalin for 24 hours, vs placebo-treated group (M-CSF) spindle shape
Procedure: The bone marrow was flushed out from the femurs of mice (C57BL/6J, 8-week-old to 20-week-old, from National Laboratory Animal Center in Taipei, Taiwan) with phosphate-buffered saline (PBS) containing BSA 0.5%. The peripheral blood or bone marrow flushing fluid were layered with Ficoll-Hypaque (GE Healthcare, Uppsala, Sweden) and centrifuged at 400×g for 40 minutes at 18° C. to isolate the mononuclear cell of peripheral blood and bone marrow. The interphase layer containing mononuclear cell was washed with PBS and centrifuged for 10 minutes at 100×g, 18° C. twice. Plate mononuclear cells in dish culture with RPM 1640 supplemented with 10% FBS (fetal bovine serum) and 50 ng/ml recombinant mouse M-CSF (PeproTech, British) at 37° C. and 5% CO2 for 7 days to induce the mononuclear cells to differentiate into macrophage. On the next day of the 7th day of M-CSF treatment, 5×10^5 cells of bone marrow derived macrophages (BMDM) cells were plated in RPMI 1640 (10% FBS) and incubated overnight. After overnight incubation, the BMDM cells were incubated in RPMI 1640 (10% FBS) supplemented with 50 μM Baicalin for 24 hours to induce the BMDM cells to polarize into […] macrophage.

## O=C(O)[C@H]1O[C@@H](Oc2cc3oc(-c4ccccc4)cc(=O)c3c(O)c2O)[C@H](O)[C@@H](O)[C@@H]1O [baicalin]
MERTK
  average MERTK expression level on single cell (mean fluorescence intensity, MFI): significantly enhanced
[1]
  morphology of the macrophages: basically round shape
